# Patent US20090143279A1 (priority 2007, published 2009)
# Like-named read-outs stand apart in the source and are kept apart here.
# Experiments:
# [1] = tested on: mitochondrial membrane potential; format: cell-based, mouse
# reactive oxygen species = format: cell-based, mouse
# OXPHOS gene expression = format: cell-based, mouse
# nuOXPHOS transcripts = format: cell-based, mouse
# mtOXPHOS transcripts = format: cell-based, mouse
# cytochrome c = format: cell-based, mouse
# [2] = tested on: cellular dehydrogenase activity
# [3] = Conc 20 μM, normalized score vs mock-treated (DMSO) wells
# [4] = composite Z-score vs DMSO, Conc 20 μM
# [5] = Table 5, C2C12 myotubes, 48 h, composite Z-score
# [6] = 20 μM, composite Z-score vs DMSO
# [7] = composite Z-score vs DMSO wells, Conc 20 μM
# [8] = composite Z-score vs DMSO, Conc 8.66 μM
smiles,measurement,setting,value
CNC[C@H](O)c1cccc(O)c1 [phenylephrine],ΔΨm,[1],−0.460
same,ROS,reactive oxygen species,0.474
same,GE-HTS,OXPHOS gene expression,0.254
same,nucOX,nuOXPHOS transcripts,0.120
same,mitoOX,mtOXPHOS transcripts,0.536
same,cyt c,cytochrome c,−0.187
same,Viability,C2C12 myotubes,−0.349
same,MTT,[2],1.105
OC[C@H]1O[C@@H](Oc2cc(O)cc(/C=C/c3ccc(O)cc3)c2)[C@H](O)[C@@H](O)[C@@H]1O [piceid],ΔΨm (composite Z-score),[1]; [3],0.088
same,ROS (composite Z-score),reactive oxygen species; [3],0.862
same,GE-HTS (composite Z-score),OXPHOS gene expression; [3],0.110
same,nucOX (composite Z-score),nuOXPHOS transcripts; [3],0.088
same,mitoOX (composite Z-score),mtOXPHOS transcripts; [3],0.124
same,cyt c (composite Z-score),cytochrome c; [3],0.272
same,Viability (composite Z-score),C2C12 myotubes; [3],−0.341
same,MTT (composite Z-score),[2]; [3],−0.826
"COc1cc([C@@H]2c3cc4c(cc3[C@H](O)[C@H]3COC(=O)[C@@H]23)OCO4)cc(OC)c1OC [picropodophyllotoxin, reference compound]",ΔΨm,[1]; [4],−0.349
same,ROS Zscore,reactive oxygen species; [5],−1.202
same,ROS,reactive oxygen species; [4],−1.202
same,GEHTS_Zscore,OXPHOS gene expression; [5],2.259
same,GE-HTS,OXPHOS gene expression; [4],1.512
same,nucOX,nuOXPHOS transcripts; [4],1.581
same,mitoOX,mtOXPHOS transcripts; [4],1.129
same,cyt c,cytochrome c; [4],−1.445
same,Viability,C2C12 myotubes; [4],−0.107
same,MTT,[2]; [4],−2.402
CC(C)(O)[C@@H]1[C@H]2OC(=O)[C@@H]1[C@]1(O)C[C@H]3O[C@]34C(=O)O[C@H]2[C@]14C [picrotin],ΔΨm,[1]; [6],−0.167
same,ROS,reactive oxygen species; [6],0.917
same,GE-HTS,OXPHOS gene expression; [6],0.253
same,nucOX,nuOXPHOS transcripts; [6],0.404
same,mitoOX,mtOXPHOS transcripts; [6],−0.167
same,cyt c,cytochrome c; [6],0.184
same,Viability,C2C12 myotubes; [6],−0.278
same,MTT,[2]; [6],−1.155
C=C(C)[C@@H]1[C@H]2OC(=O)[C@@H]1[C@]1(O)C[C@H]3O[C@]34C(=O)O[C@H]2[C@]14C [picrotoxinin],ΔΨm,[1]; [7],−1.064
same,ROS,reactive oxygen species; [7],1.094
same,GE-HTS,OXPHOS gene expression; [7],−0.512
same,nucOX,nuOXPHOS transcripts; [7],−0.408
same,mitoOX,mtOXPHOS transcripts; [7],−0.551
same,cyt c,cytochrome c; [7],0.172
same,Viability,C2C12 myotubes; [7],−1.116
same,MTT,[2]; [7],−1.611
O=c1[nH]c2ccccc2n1C1CCN(CCCC(c2ccc(F)cc2)c2ccc(F)cc2)CC1 [pimozide],ΔΨm,[1]; [8],−0.170
same,ΔΨm,[1]; [4],−0.381
same,ROS,reactive oxygen species; [8],2.196
same,ROS,reactive oxygen species; [4],1.432
same,GE-HTS,OXPHOS gene expression; [8],−0.548
same,GE-HTS,OXPHOS gene expression; [4],0.722
same,nucOX,nuOXPHOS transcripts; [8],−0.438
same,nucOX,nuOXPHOS transcripts; [4],0.857
same,mitoOX,mtOXPHOS transcripts; [8],−0.648
same,mitoOX,mtOXPHOS transcripts; [4],0.386
same,cyt c,cytochrome c; [8],−0.531
same,cyt c,cytochrome c; [4],−0.121
same,Viability,C2C12 myotubes; [8],0.494
same,Viability,C2C12 myotubes; [4],0.146
same,MTT,[2]; [8],−0.375
same,MTT,[2]; [4],−0.447
CC(N/C(=N\C#N)Nc1ccncc1)C(C)(C)C (stereo not drawn) [pinacidil],ΔΨm,[1],−0.614
same,ΔΨm,[1]; [4],−0.949
same,ROS,reactive oxygen species,0.383
same,ROS,reactive oxygen species; [4],0.655
same,GE-HTS,OXPHOS gene expression,−0.146
same,GE-HTS,OXPHOS gene expression; [4],−0.515
same,nucOX,nuOXPHOS transcripts,0.038
same,nucOX,nuOXPHOS transcripts; [4],−0.301
same,mitoOX,mtOXPHOS transcripts,−0.498
same,mitoOX,mtOXPHOS transcripts; [4],−0.814
same,cyt c,cytochrome c,0.027
same,cyt c,cytochrome c; [4],1.030
same,Viability,C2C12 myotubes,−0.477
same,Viability,C2C12 myotubes; [4],−0.062
same,MTT,[2],−0.889
same,MTT,[2]; [4],−0.142
CCn1cc(C(=O)O)c(=O)c2cnc(N3CCNCC3)nc21 [pipemidic acid],ΔΨm,[1]; [7],−0.736
same,ROS,reactive oxygen species; [7],0.010
same,GE-HTS,OXPHOS gene expression; [7],0.045
same,nucOX,nuOXPHOS transcripts; [7],0.264
same,mitoOX,mtOXPHOS transcripts; [7],−0.333
same,cyt c,cytochrome c,0.101
same,cyt c,cytochrome c; [7],0.140
same,Viability,C2C12 myotubes; [7],−0.716
same,MTT,[2]; [7],−0.367
CC[N+]1(C)CCCC(OC(=O)C(O)(c2ccccc2)c2ccccc2)C1 (stereo not drawn) [pipenzolate],ΔΨm,[1]; [7],−0.205
same,ROS,reactive oxygen species; [7],0.166
same,GE-HTS,OXPHOS gene expression; [7],−0.495
same,nucOX,nuOXPHOS transcripts; [7],−0.411
same,mitoOX,mtOXPHOS transcripts; [7],−0.569
same,cyt c,cytochrome c,0.192
same,cyt c,cytochrome c; [7],−0.954
same,Viability,C2C12 myotubes; [7],0.001
same,MTT,[2]; [7],0.060
CCN1CCN(C(=O)N[C@@H](C(=O)N[C@@H]2C(=O)N3[C@@H]2SC(C)(C)[C@@H]3C(=O)O)c2ccccc2)C(=O)C1=O [piperacillin],ΔΨm,[1]; [4],−0.150
same,ROS,reactive oxygen species; [4],0.645
same,GE-HTS,OXPHOS gene expression; [4],−0.548
same,nucOX,nuOXPHOS transcripts; [4],−0.339
same,mitoOX,mtOXPHOS transcripts; [4],−0.857
same,cyt c,cytochrome c; [4],0.544
same,Viability,C2C12 myotubes; [4],−0.990
same,MTT,[2]; [4],−1.188
O=C(CCBr)N1CCN(C(=O)CCBr)CC1 [pipobroman],ΔΨm,[1],−0.580
same,ROS,reactive oxygen species,0.342
same,GE-HTS,OXPHOS gene expression,−1.074
same,nucOX,nuOXPHOS transcripts,−0.918
same,mitoOX,mtOXPHOS transcripts,−1.219
same,cyt c,cytochrome c,0.441
same,Viability,C2C12 myotubes,−0.792
same,MTT,[2],−1.907
